Experimental data reported in patent US9475773B2, “NK3 receptor antagonist compound (NK3RA) for use in a method for the treatment of polycystic ovary syndrome (PCOS)” (ASTRAZENECA AB, priority 2013, dated 2016).

How the values were obtained:
[1] = system: LH, free and total testosterone; test: Phase 2a randomised double blind placebo controlled study in women with PCOS (interim data); type: in vivo, human
Procedure: The pharmacodynamics, safety and pharmacokinetics of a compound of the present invention, NK3RA, is being further evaluated in a randomized, double-blind, placebo-controlled of NK3RA when given in multiple doses to females with PCOS.
In this type of clinical trial three doses of 20 mg once daily, 20 mg twice daily and 40 mg twice daily of test compound are being compared to placebo, and studied in parallel group design. […] Exploratory analyses will focus on changes from baseline of LH, DHEA, FSH, oestrogen, progesterone, prolactin, thyroid stimulating hormone, Insulin-like Growth Factor 1 [IGF-1] (as surrogate for GH) and HbA1c on days 7 and 28, as well as the impact of treatment on patient reported outcomes and HRQoL as measured by change from baseline at day 28.
The study population includes women with PCOS aged 18-45. The study will enroll 14 PCOS subjects per dose cohort with a total of N=56 for the entire study (2 drop outs per group assumed to give 12 evaluable subjects per dose). Patients are being dosed in the study over a duration of 28 days.
The effect of NK3RA on testosterone and LH is being assessed. […] LH pulse amplitude and frequency are mathematically modelled parameters from raw LH assay data.
Hourly measurement of FSH and free and total testosterone was performed during these periods of intensive monitoring.
Interim data have been obtained from a total of 20 women with Polycystic Ovary Syndrome (PCOS) who received treatment (NK3RA or placebo) in the ongoing phase 2a study. This study is a 28 day, randomised, double blind placebo controlled study with 4 treatment arms, NK3RA 20 mg once daily, 20 mg twice daily, 40 mg twice daily and placebo in women with PCOS.
Tables 1 to 3 below summarise the number of patients with data supportive, consistent and not supportive by treatment group (placebo and NK3RA).
In Table 1 the criteria used to determine what is supportive, consistent or not supportive are based on a qualitative evaluation of the changes in:
(a) LH area under the curve (AUC) between 0 and 8 hours AUC(0-8)
(b) LH pulsatility parameters derived through deconvolution (Veldhuis J D, Keenan D M, and Pincus S M. Motivations and methods for analyzing pulsatile hormone secretion. Endocrine Reviews. 2008, 29(7):823-864; and Liu P Y, Keenan D M, Kok P, Padmanabhan V, O'Byrne K T, and Veldhuis J D. Sensitivity and specificity of pulse detection using a new deconvolution method. Am J Physiol Endocrinol Metab. 2009; 297(2):538-44) • i) average mass per LH pulse in 8 hours • ii) total number of LH pulses in 8 hours.
For LH, there is a relationship between the LH AUC(0-8) and LH pulsatility. In particular, reductions in LH AUC(0-8) that would be considered to be disease modifying in PCOS will manifest themselves in pulsatility parameters of average mass per LH pulse in 8 hours and/or total number of LH pulses in 8 hours. Mass per pulse (MPP) is defined the amount of LH released per reconstructed LH pulse. The LH AUC(0-8) can be more reliably measured compared to the pulsatility parameters and therefore why both AUC(0-8) and pulsatility are considered in interpreting the level of LH reduction.
In Table 2 the criteria used to determine what is supportive, consistent or not supportive are based on a qualitative evaluation of the changes in average (on an individual patient basis) free testosterone.
In Table 3 the criteria used to determine what is supportive, consistent or not supportive are based on a qualitative evaluation of the changes in average (on an individual patient basis) total testosterone.
Expert judgement was necessary in the application of these criteria and therefore plots were evaluated independently by 3 AZ physicians. The most common result across the 3 physicians determined provided the overall evaluation for a single patient. These criteria were agreed between the 3 reviewers ahead of the plots being available for review. […]

mice = test: Neurobehavioral test battery in mice; type: in vivo; settings: oral doses 100, 300 and 600 mg/kg
Procedure: Safety pharmacology studies were carried out on NK3RA and included tests to investigate possible effects on the central nervous system (CNS), cardiovascular system, and respiratory system.

rats [2] = test: Single and repeat-dose toxicology in rats; type: in vivo, rat
Procedure: Relative epididymis weight was lower at 2000 mg/kg/day.

NK2 = target: T1, NK2 (Homo sapiens, UniProt P21452); test: Specificity over other tachykinin receptors (NK2); type: binding
T1 sequence (P21452 1-398): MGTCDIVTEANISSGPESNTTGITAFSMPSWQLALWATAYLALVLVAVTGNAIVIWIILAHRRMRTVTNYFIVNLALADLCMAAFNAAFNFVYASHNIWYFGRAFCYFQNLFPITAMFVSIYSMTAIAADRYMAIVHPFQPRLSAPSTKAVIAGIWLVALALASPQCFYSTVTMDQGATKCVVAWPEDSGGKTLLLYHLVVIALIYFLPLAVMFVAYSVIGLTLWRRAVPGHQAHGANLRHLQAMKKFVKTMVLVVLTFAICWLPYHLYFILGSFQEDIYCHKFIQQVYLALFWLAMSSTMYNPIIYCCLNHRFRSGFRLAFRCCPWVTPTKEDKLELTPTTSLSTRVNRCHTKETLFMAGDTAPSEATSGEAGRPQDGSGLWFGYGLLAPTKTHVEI

female rabbits = test: Rabbit maternal toxicity and fetal observations; type: in vivo
Procedure: In female rabbits, the no effect dose level for maternal toxicity was 25 mg/kg/day. The no adverse effect dose level for fetal observations was 50 mg/kg/day.

guinea pig heart = test: Monophasic action potential of the guinea pig heart; type: in vivo; settings: IV doses up to 46 mg/kg (100 μmol/kg)
rats [3] = test: Respiratory parameters in rats; type: in vivo, rat; settings: up to 2000 mg/kg (4400 μmol/kg)
[4] = decrease vs baseline on both days 7 and 28
[5] = decrease vs baseline on either days 7 and 28
[6] = increase vs baseline on both days 7 and 28
[7] = rat 3 month study, 2000 mg/kg/day

## CC[C@H](NC(=O)c1c(NS(C)(=O)=O)c(-c2ccccc2)nc2ccccc12)c1ccccc1 [NK3RA, 3-(methanesulfonamido)-2-phenyl-N-[(1S)-1-phenylpropyl]quinoline-4-carboxamide]
[1]; NK3RA arms pooled, LH AUC decreases on both days 7 and 28 AND MPP or number of pulses decrease
  LH: No. of patients Supportive: 2
[1]; NK3RA arms pooled, LH AUC decreases on both days 7 and 28 OR MPP or number of pulses decrease
  LH: No. of patients Consistent: 3
[1]; NK3RA arms pooled, LH AUC, MPP and number of pulses increase on day 7 or 28
  LH: No. of patients Non-supportive: 3
[1]; [4]
  Free testosterone: No. of patients Supportive: 2
  Total Testosterone: No. of patients Supportive: 3
[1]; [5]
  Free testosterone: No. of patients Consistent: 4
  Total Testosterone: No. of patients Consistent: 3
[1]; [6]
  Free testosterone: No. of patients Non-supportive: 3
  Total Testosterone: No. of patients Non-supportive: 4
mice
  neurobehavioral effects: transient deficits in gait and spontaneous motor activity
  time to full recovery: ≤ 24 h
Rats [2]; rat 3 month study
  histological changes: no NK3RA-related histological changes
Rats [2]; [7]
  absolute testis weight: lower
  relative epididymis weight: lower
Rats [2]; rat 3 month study, 200 and 2000 mg/kg/day (dose-related)
  relative testis weight: lower than controls
Rats [2]; rats
  findings at the highest doses: increased liver weights with no histological correlate
  findings in the female reproductive system, repeat-dose toxicology studies: no findings in the female reproductive system
Rats [2]; rats, up to 2000 mg/kg/day
  tolerability, multiple dosing for three month: well tolerated
Rats [2]; rats, up to the limit dose of 2000 mg/kg
  tolerability, single dosing: well tolerated
NK2
  specificity for NK3 over NK2: > 800 fold
Female rabbits
  no adverse effect dose level for fetal observations: 50 mg/kg/day
  no effect dose level for maternal toxicity: 25 mg/kg/day
Guinea pig heart
  effect on monophasic action potential: without effect
Rats [3]
  respiratory parameters: did not affect any respiratory parameters
